# Measured values published in patent publication US20220233556A1, “COMPOSITIONS AND METHODS FOR TREATING OPHTHALMIC CONDITIONS” (Medicon Pharmaceuticals, Inc., priority 2017, published 2022).
# Key:
# [1] = Biodistribution of PS in human cadaveric eyes (ex vivo), PS HP-β-CD solution; format: in vitro ADME; conditions: human eye ex vivo
# Description: Human cadaveric eyes were obtained through the Lions Eye Bank for Long Island, Valley Stream, N.Y. They were preserved on ice and used within 2 h from removal from the donors.
# In another similar study, the anterior surface of the human eye was brought into direct contact with a PS HP-β-CD solution (PS concentration at 0.5%, 2.0% and 3.3%) and incubated for 10 min at 37° C. The eye was then rinsed with 10% dimethylsulfoxide (DMSO) to remove residual PS from the surface of the eye and incubated in PBS for 60 min. […] At the specified times, ocular tissues were dissected and PS levels determined by HPLC.
# [2] = tested on: oxygen-induced retinopathy; assay: Mouse model of oxygen-induced retinopathy; format: in vivo, C57BL/6 mice; conditions: intravitreal 1 μl PS solution on P12, retina on P17, vs vehicle
# Description: Several animal models have been explored to understand retinal vascular development. The mouse model of oxygen-induced retinopathy is the most widely used, and has played a pivotal role in our understanding of retinal angiogenesis and in the development of therapeutics such as anti-vascular endothelial growth factor injections for wet age-related macular degeneration.
# C57BL/6 mice were reared in 75±2% oxygen air starting on postnatal day 7 (P7) and moved into room air on P12, when they were injected intravitreally with 1 μl of […] PS solution or vehicle. The PS solution consisted of 4.0% PS, 20% Poloxamer 407 and 12% VETPGS (d-α-tocopheryl polyethylene glycol 1000 succinate). On P17, the pups were euthanized, both eyes were enucleated and fixed with 4% paraformaldehyde (PFA). Following several intermediate steps, the retina was existed and fixed further with 4% PFA overnight. After appropriate washings, the retina was incubated with 10 μg/ml of FITC-conjugated anti-lectin antibody overnight and retina flat-mounts were prepared on glass slides and evaluated by fluorescence microscopy. The areas of the avascular, neovascular and whole retina were determined using ImageJ software.
# PGE2 = PGE2 levels in tears and cornea of rabbits (ELISA); format: in vivo
# Description: FIGS. 9A and 9B illustrate that PS preserves the levels of PGE2 in tears and the cornea. In FIG. 9A, PGE2 levels were determined by ELISA in tears collected on day 7 from naïve rabbits and rabbits with Con A-induced DED treated for 1 week with vehicle or PS. In FIG. 9B, PGE2 levels were further examined. Upper panel: PGE2 levels in the tears of naïve rabbits and rabbits with Con A-induced DED treated for 1 h with PS or ketorolac as in Methods. Lower panel: PGE2 levels in the corneal tissue of naïve rabbits and rabbits with Con A-induced DED treated for 1 week with vehicle or PS or ketorolac or diclofenac. n=8 eyes/group. Values=mean±SEM.
# It was determined that the levels of PGE2 in rabbit tears in three groups of rabbits, naïve and those with Con A-induced DED that were treated for 1 week either with PS or vehicle.
# In an acute experiment, administered once topically to the eyes of four groups of rabbits with Con A-induced DED was one of the following: vehicle, PS, ketorolac or diclofenac; the latter two are NSAIDs used for the treatment of ocular inflammation and pain. It was determined that the levels of PGE2 in the cornea of these rabbits obtained 1 h later as well as in the corneas of naïve rabbits.
# JNK and Erk1/2 = assay: MAPK activation by phosphorylation (immunoblots) in human conjunctival cells; format: cell-based; conditions: PS 3.5 h
# Description: FIGS. 6A and 6B illustrate that PS suppresses the activation of NF-κB and MAPKs. In FIG. 6A, NF-κB activation was determined by EMSA in cultured human conjunctival cells stimulated with TNFα (top) and in the ILG of rabbits with Con A-induced DED and treated for one week with either vehicle or PS (bottom). In FIG. 6B, immunoblots detecting the activation of MAPKs by phosphorylation in cultured human conjunctival cells treated with PS at the indicated concentrations for 3.5 h. Loading control: β-actin.
# The conjunctiva cells used express only the JNK and Erk1/2 pathways.
compound,measurement,setting,value
"CCOP(=O)(OCC)OCCCCOC(=O)CC1=C(C)/C(=C/c2ccc([S+](C)[O-])cc2)c2ccc(F)cc21 (stereo not drawn) [PS, phosphosulindac]",PS in Aqueous,[1]; 0.5% PS HP-β-CD solution,2.4 µM
same,PS in Lens,[1]; 0.5% PS HP-β-CD solution,0.6 µM
same,PS in Retina,[1]; 0.5% PS HP-β-CD solution,2.9 µM
same,PS in Vitreous,[1]; 0.5% PS HP-β-CD solution,0.3 µM
same,PS in Lens,[1]; 2.0% PS HP-β-CD solution,1.4 µM
same,PS in Lens,[1]; 3.3% PS HP-β-CD solution,1.9 µM
same,PS in Vitreous,[1]; 3.3% PS HP-β-CD solution,4.3 µM
same,inhibition of peripheral neovascularization,[2],36%
same,reduction of central avascular area,[2],51%
same,PGE2 levels in tears,PGE2; rabbits with Con A-induced DED treated 1 week,slightly lower than (but not significantly different from) those of naïve rabbits
same,PGE2 levels in the cornea,"PGE2; rabbits with Con A-induced DED, administered once topically, 1 h later",no different than those of vehicle-treated and naïve rabbits
same,activation by phosphorylation of JNK and Erk1/2,JNK and Erk1/2,profoundly suppressed
